The text below walks through data of paper PMC7503225, “Repositioning Dequalinium as Potent Muscarinic Allosteric Ligand by Combining Virtual Screening Campaigns and Experimental Binding Assays” (International Journal of Molecular Sciences, 2020).

Where only a bound is given, the exact number is not on record here.

Data set [1] concerns the target T1, [3H]-NMS-occupied muscarinic hM1 subtype (Homo sapiens, UniProt P11229).
T1 sequence (P11229 1-460): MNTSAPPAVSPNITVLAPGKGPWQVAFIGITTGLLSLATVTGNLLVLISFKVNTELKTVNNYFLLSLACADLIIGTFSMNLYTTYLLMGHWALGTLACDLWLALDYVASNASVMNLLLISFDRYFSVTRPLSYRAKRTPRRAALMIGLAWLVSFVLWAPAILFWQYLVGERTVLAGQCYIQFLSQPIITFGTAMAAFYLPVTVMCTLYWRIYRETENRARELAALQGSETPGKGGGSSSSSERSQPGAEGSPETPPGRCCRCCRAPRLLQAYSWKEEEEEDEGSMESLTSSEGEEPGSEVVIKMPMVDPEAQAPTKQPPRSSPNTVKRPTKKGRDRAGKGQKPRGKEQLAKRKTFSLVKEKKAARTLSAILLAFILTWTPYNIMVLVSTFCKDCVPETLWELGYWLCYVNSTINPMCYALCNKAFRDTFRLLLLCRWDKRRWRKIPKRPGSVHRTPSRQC
Kind of data set: biochemical. As to the method:
(§1) All tested compounds were purchased from Merck KGaA (Darmstadt, Germany). The radioligand binding experiments were performed with membranes from Chinese Hamster Ovary (CHO) cells stably transfected with the five cloned human muscarinic receptor subtypes (hM1-5). Membrane fractions were prepared according to the protocol, which have been previously described; membranes were stored at −80 °C until use. Nonspecific binding was defined by the radioactivity bound in the presence of 10 µM atropine.
(§2) Off-rate assays were performed as described elsewhere to estimate the affinity of the ligands for the [^3H]-NMS-occupied receptor (log Kocc). Briefly, a high concentration of membranes (about 0.1 mg/mL) was incubated with a high concentration of [^3H]-NMS (2 nM) for 60 min at room temperature (mix membrane). Next, 100 µL aliquots were distributed into polypropylene tubes that were empty or in a final volume of 1 mL binding buffer with 1 µM atropine alone and in the presence of a range of concentrations of tested compound (1 nM–0.1 mM).
(§3) The effect on the radioligand dissociation of each tested ligand was determined at 0 min and at one time point, which was chosen to be ca 2.5 dissociation half-lives of [^3H]-NMS alone from each subtype receptors. Later (80 min for hM1, 20 min for hM2 and 70 min for hM5), the samples were filtered and counted as previously reported. Non specific binding was measured as previously reported.
(§4) All the results are expressed as means ± SEM obtained from 3-4 independent experiments each one performed in duplicate.

The target in data set [2] is T2, hM1 muscarinic receptor (Homo sapiens, UniProt P11229).
T2 construct: expressed in transfected cells; host or cells: CHO cells, stably transfected; membrane fractions
T2 sequence (P11229 1-460): T1 sequence (P11229 1-460)
In words: Equilibrium inhibition binding with [3H]-NMS, CHO cell membranes. Particulars: [3H]-NMS 0.2 nM, mean ± SEM of 3-4 experiments, read-out: pKi hM1 (converted). As to the method:
as §1
(§5) Aliquots of membranes (25–70 µg/mL) were added and incubated for 2 h at room temperature, filtered through UniFilter GF/B plates (PerkinElmer Life and Analytical Science, Monza, Italy) using a FilterMate cell harvester (PerkinElmer Life and Analytical Science, Monza, Italy). The filters were washed several times with ice-cold MilliQ water. Then, the plates were counted in a β-counter (TopCount NXT microplate scintillation counter, PerkinElmer Life and Analytical Science, Monza, Italy).
(§6) Data points from radioligand inhibition binding curve were fitted to models using nonlinear regression equation to determine inhibitor potency (IC50) estimates, which were then converted to Ki values as appropriate.
as §4

Data set [3] deals with T3, hM4 muscarinic receptor (Homo sapiens, UniProt P08173).
T3 construct: expressed in transfected cells; host or cells: CHO cells, stably transfected; membrane fractions
T3 sequence (P08173 1-479): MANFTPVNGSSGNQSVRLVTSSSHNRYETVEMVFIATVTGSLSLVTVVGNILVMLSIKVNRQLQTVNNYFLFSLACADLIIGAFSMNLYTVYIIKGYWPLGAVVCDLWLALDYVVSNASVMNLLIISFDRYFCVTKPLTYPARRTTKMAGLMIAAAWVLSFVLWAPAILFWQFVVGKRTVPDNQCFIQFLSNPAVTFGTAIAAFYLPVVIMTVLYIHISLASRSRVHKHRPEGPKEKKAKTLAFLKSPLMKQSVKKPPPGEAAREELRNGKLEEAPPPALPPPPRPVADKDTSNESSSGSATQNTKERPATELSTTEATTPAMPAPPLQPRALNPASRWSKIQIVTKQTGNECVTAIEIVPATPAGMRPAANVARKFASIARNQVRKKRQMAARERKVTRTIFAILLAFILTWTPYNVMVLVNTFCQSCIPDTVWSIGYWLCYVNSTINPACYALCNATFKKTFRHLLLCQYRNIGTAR
The description is as above. Particulars: [3H]-NMS 0.2 nM, CHO membranes, mean ± SEM of 3-4 experiments; read-out: pKi hM4 (converted). As to the method: as §1, §5, §6, §4

Data set [4] addresses T4, hM3 muscarinic receptor (Homo sapiens, UniProt P20309).
T4 construct: expressed in transfected cells; host or cells: CHO cells, stably transfected; membrane fractions
Described as above. Particulars: [3H]-NMS 0.2 nM, mean ± SEM of 3-4 experiments, read-out: pKi hM3 (converted). As to the method:
as §1, §5, §6, §4

In data set [5] the target is T5, hM5 muscarinic receptor (Homo sapiens, UniProt P08912).
T5 construct: expressed in transfected cells; host or cells: CHO cells, stably transfected; membrane fractions
T5 sequence (P08912 1-532): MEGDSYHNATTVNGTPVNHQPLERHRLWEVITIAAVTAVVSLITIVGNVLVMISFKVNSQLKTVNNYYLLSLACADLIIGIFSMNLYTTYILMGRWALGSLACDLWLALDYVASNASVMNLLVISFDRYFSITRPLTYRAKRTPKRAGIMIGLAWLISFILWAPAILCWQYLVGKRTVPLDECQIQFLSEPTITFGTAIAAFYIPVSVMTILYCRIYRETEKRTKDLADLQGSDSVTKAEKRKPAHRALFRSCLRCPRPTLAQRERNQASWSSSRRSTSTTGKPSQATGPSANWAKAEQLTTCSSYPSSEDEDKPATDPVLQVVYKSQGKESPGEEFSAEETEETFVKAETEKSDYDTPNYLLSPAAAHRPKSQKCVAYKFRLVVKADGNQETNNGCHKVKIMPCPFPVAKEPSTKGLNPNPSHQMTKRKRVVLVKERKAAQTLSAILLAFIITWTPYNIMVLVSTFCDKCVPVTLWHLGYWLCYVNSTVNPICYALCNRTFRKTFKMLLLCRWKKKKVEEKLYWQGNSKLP
Described as above. Particulars: [3H]-NMS 0.2 nM, CHO membranes, mean ± SEM of 3-4 experiments; read-out: pKi hM5 (converted). As to the method: as §1, §5, §6, §4

Data set [6] addresses T6, hM2 muscarinic receptor (Homo sapiens, UniProt P08172).
T6 construct: expressed in transfected cells; host or cells: CHO cells, stably transfected; membrane fractions
T6 sequence (P08172 1-466): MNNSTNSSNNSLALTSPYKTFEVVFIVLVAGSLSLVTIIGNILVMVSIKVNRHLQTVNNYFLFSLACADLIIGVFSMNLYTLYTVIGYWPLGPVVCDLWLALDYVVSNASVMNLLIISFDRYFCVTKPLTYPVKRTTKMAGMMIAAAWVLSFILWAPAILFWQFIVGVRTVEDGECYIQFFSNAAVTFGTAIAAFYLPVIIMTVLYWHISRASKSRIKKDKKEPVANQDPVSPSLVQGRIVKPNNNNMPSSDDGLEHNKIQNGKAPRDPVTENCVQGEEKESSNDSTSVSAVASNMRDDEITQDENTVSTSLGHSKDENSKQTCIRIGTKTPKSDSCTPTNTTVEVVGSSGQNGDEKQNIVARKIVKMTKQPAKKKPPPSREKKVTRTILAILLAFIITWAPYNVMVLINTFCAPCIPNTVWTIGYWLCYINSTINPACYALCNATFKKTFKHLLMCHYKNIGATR
The data set is described as above. Particulars: [3H]-NMS 0.2 nM, mean ± SEM of 3-4 experiments, read-out: pKi hM2 (converted). As to the method:
as §1, §5, §6, §4

Data set [7] has as its target T7, [3H]-NMS-occupied muscarinic hM2 subtype (Homo sapiens, UniProt P08172).
T7 construct: expressed in transfected cells; host or cells: CHO cells, stably transfected; membrane fractions
T7 sequence (P08172 1-466): T6 sequence (P08172 1-466)
In words: One point kinetic (off-rate) assay of [3H]-NMS dissociation. The format is binding. Particulars: for Kd: read-out: Log Kocc hM2 (converted). As to the method: as §1, §2, §3, §4

Data set [8] addresses T8, [3H]-NMS-occupied muscarinic hM5 subtype (Homo sapiens, UniProt P08912).
T8 construct: expressed in transfected cells; host or cells: CHO cells, stably transfected; membrane fractions
T8 sequence (P08912 1-532): T5 sequence (P08912 1-532)
The data set is described as above. The class given is binding. Particulars: read-out: log Kocc hM5 (converted). As to the method: as §1, §2, §3
Data from one-point kinetic experiments were analyzed in order to obtain estimates of the affinity of an allosteric ligand for the [^3H]-NMS occupied receptor (log Kocc) in a single step, using an equation introduced in GraphPad Prism 5.02 [33, 34].
as §4

The conditions of data set [9]: ref DrugBank [16]; cited from earlier work.
Data set [10] deals with five human muscarinic receptors subtypes (hM1–hM5). In words: Equilibrium binding, summary statements over the five subtypes. As to the method: as §1, §5, §6, §4

A word on the logP: it is the decadic logarithm of the partition coefficient of the neutral form, usually between octanol and water.

T4 sequence (P20309 whole entry): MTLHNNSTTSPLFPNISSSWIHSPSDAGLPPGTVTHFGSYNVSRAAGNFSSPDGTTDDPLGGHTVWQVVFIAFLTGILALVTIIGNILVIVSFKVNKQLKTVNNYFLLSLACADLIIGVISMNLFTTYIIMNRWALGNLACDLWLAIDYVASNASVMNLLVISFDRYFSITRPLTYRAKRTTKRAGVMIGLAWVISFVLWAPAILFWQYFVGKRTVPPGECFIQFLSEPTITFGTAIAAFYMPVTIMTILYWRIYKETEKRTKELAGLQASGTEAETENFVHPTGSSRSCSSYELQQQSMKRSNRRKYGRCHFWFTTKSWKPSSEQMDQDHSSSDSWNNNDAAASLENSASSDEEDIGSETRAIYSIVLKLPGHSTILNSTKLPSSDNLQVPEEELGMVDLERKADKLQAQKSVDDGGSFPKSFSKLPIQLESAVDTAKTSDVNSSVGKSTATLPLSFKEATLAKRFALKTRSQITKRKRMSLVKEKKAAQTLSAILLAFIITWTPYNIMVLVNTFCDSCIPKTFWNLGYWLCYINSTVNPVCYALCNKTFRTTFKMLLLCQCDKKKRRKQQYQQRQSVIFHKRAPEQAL

Consider `C[N+](C)(CCCCCC[N+](C)(C)CCCN1C(=O)c2ccccc2C1=O)CCCN1C(=O)c2ccccc2C1=O` [W84], for which the values for the Kd in data set [1], in [7] and in [8] were 1.62 µM, 0.288 µM and 18.2 µM, respectively. For the same compound, the Ki was 0.891 µM in data set [2]; 5.01 µM in data set [3]; 5.5 µM in [4]; 9.12 µM in [5]; 6.17 µM in data set [6]. In addition, the “selectivity ratio hM2/hM1” value in data set [7] (from log Kocc values) is reported as 4.6. Further, the “selectivity ratio hM2/hM5” value in data set [7] (from log Kocc values) is listed as 52.5.

In the case of `COCCCOc1cc(C[C@@H](C[C@H](N)[C@@H](O)C[C@H](C(=O)NCC(C)(C)C(N)=O)C(C)C)C(C)C)ccc1OC` [aliskiren], the Ki in data set [3] and in data set [5] was greater than 100 µM each time. Besides, the log partition coefficient (logP) in [9] is recorded as 3.3. Moreover, in [10], the “pKi values (muscarinic subtypes overall)” value is reported as “devoid of affinity for all muscarinic receptors”.

With `[H]/N=C(\N/C(=N/[H])NCCCCCCNC(=N)NC(=N)Nc1ccc(Cl)cc1)Nc1ccc(Cl)cc1` [chlorhexidine], the results for the Kd in data set [1] and in [8] were 81.3 µM and 186 µM, respectively. In addition, the Ki was 0.501 µM in data set [2], 1.62 µM in [3], 2.14 µM in data set [4] and 2.24 µM in [5]. Besides, in data set [10], the “pKi values (muscarinic subtypes overall)” value is listed as “around 6”.

With `N=C(N)c1ccc(/N=N/Nc2ccc(C(=N)N)cc2)cc1` [diminazene], the Ki in [2] is 3.16 µM; in data set [3], 8.91 µM; in data set [4] it was 4.79 µM; in [5], 4.79 µM; in data set [6] it was 5.62 µM. In data set [7], the Kd was 155 µM. Also, the “pKi values (muscarinic subtypes overall)” value in data set [10] is reported as “around 5”.

As to `N=C(N)c1ccc(OCCCCCOc2ccc(C(=N)N)cc2)cc1` [pentamidine], the Ki in data set [3] was 1.32 µM; in data set [5], 1.74 µM. For the same compound, in [8], the Kd was 182 µM.
